Columns and labels:
5-HT2A receptor [1] = biological target: T1, 5-HT2A receptor (Homo sapiens, UniProt P28223); assay: h5-HT2A affinity, antagonist radioligand [3H]ketanserin; assay type: binding
5-HT2A receptor [2] = biological target: T1, 5-HT2A receptor; assay: h5-HT2A affinity, agonist radioligand [125I]DOI; assay type: binding
human 5-HT2C receptor [3] = biological target: T2, human 5-HT2C receptor (Homo sapiens, UniProt P28335); assay: h5-HT2C affinity, antagonist radioligand [3H]mesulergine; assay type: binding
T2 sequence (P28335 33-458): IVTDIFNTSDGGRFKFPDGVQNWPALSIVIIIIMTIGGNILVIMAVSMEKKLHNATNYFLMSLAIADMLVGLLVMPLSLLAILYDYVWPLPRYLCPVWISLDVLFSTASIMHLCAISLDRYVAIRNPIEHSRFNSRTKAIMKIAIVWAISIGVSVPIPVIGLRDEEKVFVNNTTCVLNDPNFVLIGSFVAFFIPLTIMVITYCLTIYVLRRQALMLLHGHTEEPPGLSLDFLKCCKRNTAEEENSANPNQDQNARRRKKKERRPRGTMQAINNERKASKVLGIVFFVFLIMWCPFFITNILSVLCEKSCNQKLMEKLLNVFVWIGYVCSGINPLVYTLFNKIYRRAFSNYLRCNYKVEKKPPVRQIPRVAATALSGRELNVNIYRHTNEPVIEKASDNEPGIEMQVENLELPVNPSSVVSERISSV

human 5-HT2C receptor [4] = biological target: T2, human 5-HT2C receptor; assay: h5-HT2C affinity, agonist radioligand [125I]DOI; assay type: binding
5-HT2B = 5-HT2B (Homo sapiens, UniProt P41595); assay: PDSP screening affinity 5-HT2B; assay type: binding
5-HT1A = biological target: T3, 5-HT1A (Homo sapiens, UniProt P08908); assay: PDSP screening affinity 5-HT1A; assay type: binding; conditions: 5-HT1A affinity
T3 sequence (P08908 1-422): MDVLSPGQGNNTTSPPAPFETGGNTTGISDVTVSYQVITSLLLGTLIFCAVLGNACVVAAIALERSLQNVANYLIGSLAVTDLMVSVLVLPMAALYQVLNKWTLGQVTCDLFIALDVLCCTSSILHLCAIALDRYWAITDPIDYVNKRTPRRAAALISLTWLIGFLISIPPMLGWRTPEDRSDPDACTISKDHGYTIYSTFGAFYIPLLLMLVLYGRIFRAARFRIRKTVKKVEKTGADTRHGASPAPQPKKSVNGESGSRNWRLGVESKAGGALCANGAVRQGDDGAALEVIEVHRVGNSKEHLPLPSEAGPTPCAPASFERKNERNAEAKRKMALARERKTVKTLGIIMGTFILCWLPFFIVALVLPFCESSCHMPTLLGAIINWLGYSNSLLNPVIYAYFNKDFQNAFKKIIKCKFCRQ

5-HT1B = 5-HT1B (Homo sapiens, UniProt P28222); assay: PDSP screening affinity 5-HT1B; assay type: binding; conditions: 5-HT1B affinity
5-HT1D = 5-HT1D (Homo sapiens, UniProt P28221); assay: PDSP screening affinity 5-HT1D; assay type: binding
5-ht1e = 5-ht1e (Homo sapiens, UniProt P28566); assay: PDSP screening affinity 5-ht1e; assay type: binding
5-HT3 = biological target: T4, 5-HT3 (Homo sapiens, UniProt P46098); assay: PDSP screening affinity 5-HT3; assay type: binding
T4 sequence (P46098 24-478): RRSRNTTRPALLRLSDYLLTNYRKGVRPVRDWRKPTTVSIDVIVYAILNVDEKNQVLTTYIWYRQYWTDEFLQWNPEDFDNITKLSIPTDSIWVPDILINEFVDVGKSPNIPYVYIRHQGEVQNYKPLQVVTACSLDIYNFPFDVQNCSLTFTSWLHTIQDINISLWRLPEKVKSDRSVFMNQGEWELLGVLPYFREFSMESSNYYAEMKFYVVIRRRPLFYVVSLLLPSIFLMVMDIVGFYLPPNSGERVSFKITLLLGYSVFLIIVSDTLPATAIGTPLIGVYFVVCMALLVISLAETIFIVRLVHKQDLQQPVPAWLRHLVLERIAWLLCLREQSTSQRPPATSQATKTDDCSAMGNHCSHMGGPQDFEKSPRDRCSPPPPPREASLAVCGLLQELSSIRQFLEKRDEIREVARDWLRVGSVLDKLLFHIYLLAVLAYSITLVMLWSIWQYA

5-ht5a = 5-ht5a (Homo sapiens, UniProt P47898); assay: PDSP screening affinity 5-ht5a; assay type: binding; conditions: 5-ht5a affinity
5-HT6 = 5-HT6 (Homo sapiens, UniProt P50406); assay: PDSP screening affinity 5-HT6; assay type: binding; conditions: 5-HT6 affinity
5-HT7 = 5-HT7 (Homo sapiens, UniProt P34969); assay: PDSP screening affinity 5-HT7; assay type: binding; conditions: 5-HT7 affinity
r5-HT2A = r5-HT2A (Rattus norvegicus, UniProt P14842); assay: Ca2+ mobilization assay; assay type: cell-based; conditions: for EC50: r5-HT2A EC50, Ca2+ mobilization; for Emax: read-out: r5-HT2A Emax, percentage of the maximum response to 5-HT
h5-HT2A = h5-HT2A (Homo sapiens, UniProt P28223); assay: Ca2+ mobilization assay; assay type: cell-based; conditions: for Emax: HEK293, read-out: h5-HT2A Emax, percentage of the maximum response to 5-HT
h5-HT2B = h5-HT2B (Homo sapiens, UniProt P41595); assay: Ca2+ mobilization assay; assay type: cell-based; conditions: for Emax: HEK293, read-out: h5-HT2B Emax
r5-HT2C = biological target: T5, r5-HT2C (Rattus norvegicus, UniProt P08909); assay: Ca2+ mobilization assay; assay type: cell-based; conditions: for EC50: r5-HT2C EC50, Ca2+ mobilization; for Emax: read-out: r5-HT2C Emax
T5 sequence (P08909 33-460): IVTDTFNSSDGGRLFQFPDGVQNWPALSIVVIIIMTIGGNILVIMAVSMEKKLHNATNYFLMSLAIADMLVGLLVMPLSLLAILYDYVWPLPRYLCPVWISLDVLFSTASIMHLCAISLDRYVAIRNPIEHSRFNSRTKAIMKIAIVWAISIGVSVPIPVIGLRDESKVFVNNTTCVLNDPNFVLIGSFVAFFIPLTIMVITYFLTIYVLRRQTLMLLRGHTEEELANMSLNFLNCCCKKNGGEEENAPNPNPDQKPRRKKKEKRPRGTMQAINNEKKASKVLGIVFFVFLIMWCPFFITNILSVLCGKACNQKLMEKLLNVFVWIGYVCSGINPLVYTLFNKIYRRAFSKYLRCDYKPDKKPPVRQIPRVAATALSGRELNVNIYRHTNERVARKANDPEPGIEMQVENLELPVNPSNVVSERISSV

h5-HT2C = biological target: T6, h5-HT2C (Homo sapiens, UniProt P28335); assay: Ca2+ mobilization assay; assay type: cell-based; conditions: for Emax: HEK293, read-out: h5HT2C Emax; for EC50: h5HT2C EC50, Ca2+ mobilization
T6 sequence (P28335 33-458): T2 sequence (P28335 33-458)

Male C57BL/6J mice = assay: Mouse head twitch response; conditions: for max counts: HTR counts; for max counts / activity in the HTR assay (active / inactive) / magnitude of peak effect × vehicle / maximally effective dose: SC; for ED50: Mus musculus, sc, read-out: ED50 mg/kg (95% CI), mouse head twitch; for activity in the HTR assay (active / inactive): doses up to 30 mg/kg; for magnitude of peak effect × vehicle / maximally effective dose: mouse head twitch
[5] = h5-HT2B EC50, Ca2+ mobilization

5-HT7, sequence (P34969 whole entry): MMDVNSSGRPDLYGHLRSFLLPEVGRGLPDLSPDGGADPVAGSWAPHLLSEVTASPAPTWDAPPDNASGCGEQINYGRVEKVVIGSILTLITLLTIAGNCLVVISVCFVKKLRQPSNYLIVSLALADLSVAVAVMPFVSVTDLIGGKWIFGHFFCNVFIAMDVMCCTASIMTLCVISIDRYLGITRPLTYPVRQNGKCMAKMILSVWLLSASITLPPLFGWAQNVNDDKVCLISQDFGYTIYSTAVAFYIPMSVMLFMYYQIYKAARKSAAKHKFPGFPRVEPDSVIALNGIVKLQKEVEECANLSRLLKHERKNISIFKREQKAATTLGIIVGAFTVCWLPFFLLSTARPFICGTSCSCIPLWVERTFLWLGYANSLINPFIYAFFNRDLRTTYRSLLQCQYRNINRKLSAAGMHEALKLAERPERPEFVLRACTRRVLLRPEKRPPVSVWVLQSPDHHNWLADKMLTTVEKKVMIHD
5-HT1B, sequence (P28222 whole entry): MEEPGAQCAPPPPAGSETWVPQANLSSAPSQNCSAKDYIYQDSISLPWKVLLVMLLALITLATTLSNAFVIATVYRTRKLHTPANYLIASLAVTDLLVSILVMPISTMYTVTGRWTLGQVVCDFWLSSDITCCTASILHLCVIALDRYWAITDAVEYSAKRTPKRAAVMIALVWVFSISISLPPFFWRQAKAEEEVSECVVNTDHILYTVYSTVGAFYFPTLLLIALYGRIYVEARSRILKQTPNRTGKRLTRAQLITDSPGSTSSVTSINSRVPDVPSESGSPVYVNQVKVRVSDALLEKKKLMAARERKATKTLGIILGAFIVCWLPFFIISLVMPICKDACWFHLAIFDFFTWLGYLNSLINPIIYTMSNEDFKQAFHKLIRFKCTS
5-HT6, sequence (P50406 whole entry): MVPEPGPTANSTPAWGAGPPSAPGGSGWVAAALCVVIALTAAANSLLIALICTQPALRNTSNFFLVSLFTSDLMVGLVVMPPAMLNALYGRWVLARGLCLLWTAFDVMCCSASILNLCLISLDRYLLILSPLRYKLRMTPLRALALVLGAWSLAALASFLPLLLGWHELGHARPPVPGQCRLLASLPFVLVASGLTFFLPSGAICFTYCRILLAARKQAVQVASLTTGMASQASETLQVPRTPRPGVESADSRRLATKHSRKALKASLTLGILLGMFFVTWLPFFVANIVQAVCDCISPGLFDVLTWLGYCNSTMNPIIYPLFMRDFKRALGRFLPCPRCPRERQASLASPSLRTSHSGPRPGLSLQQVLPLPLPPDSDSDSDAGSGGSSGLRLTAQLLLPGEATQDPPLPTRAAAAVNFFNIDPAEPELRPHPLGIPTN
r5-HT2A, sequence (P14842 whole entry): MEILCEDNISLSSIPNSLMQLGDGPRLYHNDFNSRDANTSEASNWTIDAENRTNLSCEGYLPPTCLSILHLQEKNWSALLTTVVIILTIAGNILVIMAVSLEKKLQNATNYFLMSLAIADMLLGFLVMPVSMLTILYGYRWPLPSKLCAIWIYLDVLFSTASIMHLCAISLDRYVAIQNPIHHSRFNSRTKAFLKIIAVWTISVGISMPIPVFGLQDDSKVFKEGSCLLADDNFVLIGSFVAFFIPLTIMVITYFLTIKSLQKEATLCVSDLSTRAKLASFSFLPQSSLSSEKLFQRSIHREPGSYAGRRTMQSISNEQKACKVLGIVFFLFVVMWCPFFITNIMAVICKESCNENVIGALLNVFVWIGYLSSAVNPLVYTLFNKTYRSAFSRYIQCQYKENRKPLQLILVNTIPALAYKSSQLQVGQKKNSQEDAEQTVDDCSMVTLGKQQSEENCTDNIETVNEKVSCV
5-ht1e, sequence (P28566 whole entry): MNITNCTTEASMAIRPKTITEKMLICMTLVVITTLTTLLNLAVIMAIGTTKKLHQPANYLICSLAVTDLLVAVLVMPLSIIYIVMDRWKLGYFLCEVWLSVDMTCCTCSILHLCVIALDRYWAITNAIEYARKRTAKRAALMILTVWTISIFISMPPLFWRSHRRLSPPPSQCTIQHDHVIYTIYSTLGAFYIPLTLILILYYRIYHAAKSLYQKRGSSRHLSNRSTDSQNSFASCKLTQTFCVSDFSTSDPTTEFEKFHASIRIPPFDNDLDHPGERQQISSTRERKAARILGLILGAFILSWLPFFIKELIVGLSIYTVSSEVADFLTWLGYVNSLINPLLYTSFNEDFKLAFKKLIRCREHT
h5-HT2A, sequence (P28223 whole entry): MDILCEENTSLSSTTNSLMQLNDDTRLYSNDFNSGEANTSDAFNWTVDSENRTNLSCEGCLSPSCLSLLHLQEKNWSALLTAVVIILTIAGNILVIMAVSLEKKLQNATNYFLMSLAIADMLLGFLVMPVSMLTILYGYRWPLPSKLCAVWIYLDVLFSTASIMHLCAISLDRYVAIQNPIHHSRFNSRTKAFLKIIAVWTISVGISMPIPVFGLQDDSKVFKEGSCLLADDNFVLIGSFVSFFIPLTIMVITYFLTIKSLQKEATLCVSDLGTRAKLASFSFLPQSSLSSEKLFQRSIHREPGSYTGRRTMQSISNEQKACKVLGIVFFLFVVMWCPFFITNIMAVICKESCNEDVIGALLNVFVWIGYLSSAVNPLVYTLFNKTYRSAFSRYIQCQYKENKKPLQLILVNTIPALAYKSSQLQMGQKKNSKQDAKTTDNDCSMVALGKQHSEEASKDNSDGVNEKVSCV
T1 sequence (P28223 whole entry): as above
5-HT1D, sequence (P28221 whole entry): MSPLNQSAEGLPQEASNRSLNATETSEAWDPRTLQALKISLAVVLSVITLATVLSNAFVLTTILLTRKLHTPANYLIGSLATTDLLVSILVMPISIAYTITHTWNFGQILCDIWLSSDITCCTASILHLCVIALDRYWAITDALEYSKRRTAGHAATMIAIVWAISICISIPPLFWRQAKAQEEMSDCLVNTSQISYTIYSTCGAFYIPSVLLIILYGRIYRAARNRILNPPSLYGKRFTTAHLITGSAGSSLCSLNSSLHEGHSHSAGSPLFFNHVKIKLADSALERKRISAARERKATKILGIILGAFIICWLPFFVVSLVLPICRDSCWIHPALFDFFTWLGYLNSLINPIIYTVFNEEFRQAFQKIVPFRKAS
5-ht5a, sequence (P47898 whole entry): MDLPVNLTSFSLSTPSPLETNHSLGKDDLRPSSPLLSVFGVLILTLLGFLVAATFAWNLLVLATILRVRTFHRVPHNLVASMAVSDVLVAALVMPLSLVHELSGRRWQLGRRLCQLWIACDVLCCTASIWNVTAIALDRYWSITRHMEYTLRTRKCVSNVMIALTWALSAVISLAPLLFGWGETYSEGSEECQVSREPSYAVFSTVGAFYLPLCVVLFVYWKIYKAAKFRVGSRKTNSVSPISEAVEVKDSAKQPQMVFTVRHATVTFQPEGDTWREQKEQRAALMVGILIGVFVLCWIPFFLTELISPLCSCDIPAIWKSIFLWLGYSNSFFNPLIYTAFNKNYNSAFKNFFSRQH
h5-HT2B, sequence (P41595 whole entry): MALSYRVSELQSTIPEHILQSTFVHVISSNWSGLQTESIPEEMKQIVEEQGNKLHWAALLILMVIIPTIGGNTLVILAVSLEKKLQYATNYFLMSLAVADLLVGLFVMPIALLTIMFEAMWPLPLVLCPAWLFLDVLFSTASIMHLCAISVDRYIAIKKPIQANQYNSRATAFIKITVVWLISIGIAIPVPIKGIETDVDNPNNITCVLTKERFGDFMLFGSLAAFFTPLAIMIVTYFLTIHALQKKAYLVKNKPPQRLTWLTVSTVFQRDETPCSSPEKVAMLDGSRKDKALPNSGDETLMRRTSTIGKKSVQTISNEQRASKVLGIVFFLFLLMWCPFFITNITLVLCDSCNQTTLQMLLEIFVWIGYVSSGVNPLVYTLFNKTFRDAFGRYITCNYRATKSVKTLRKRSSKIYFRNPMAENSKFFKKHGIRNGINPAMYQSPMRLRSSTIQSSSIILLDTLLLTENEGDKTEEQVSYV
5-HT2B, sequence (P41595 whole entry): as above

Compound	Ki (5-HT2A receptor [1]) [nM]	Ki (5-HT2A receptor [2]) [nM]	Ki (human 5-HT2C receptor [3]) [nM]	Ki (human 5-HT2C receptor [4]) [nM]	Ki (5-HT1A) [nM]	Ki (5-HT1B) [nM]	Ki (5-HT1D) [nM]	Ki (5-ht1e) [nM]	Ki (5-HT3) [nM]	Ki (5-ht5a) [nM]	Ki (5-HT6) [nM]	Ki (5-HT7) [nM]	EC50 (r5-HT2A) [nM]	Emax (r5-HT2A) [%]	EC50 (h5-HT2A) [nM]	Emax (h5-HT2A) [%]	Emax (h5-HT2B) [%]	EC50 (h5-HT2B; [5]) [nM]	EC50 (r5-HT2C) [nM]	Emax (r5-HT2C) [%]	other results
COc1cccc(CNCCc2cc(OC)c(I)cc2OC)c1 [Compound 4a, N-(3-Methoxybenzyl)-2-(4-iodo-2,5-dimethoxyphenyl)ethan-1-amine]	1.55	0.269	4.17	0.126	925	3230	439	1710	> 10000	57	67	583	27	51.7 ± 0.9	28	71.6 ± 0.9	≤ 15	38	133	91 ± 3	Ki (5-HT2B; 5-HT2B affinity): 4.6 nM; Emax (h5-HT2C): 41 ± 6%; EC50 (h5-HT2C): 33.8 nM; max counts (Male C57BL/6J mice): 11.4; ED50 (Male C57BL/6J mice): 4.34 mg/kg; activity in the HTR assay (active / inactive) (Male C57BL/6J mice): active; magnitude of peak effect × vehicle (Male C57BL/6J mice): 5.7 × vehicle; maximally effective dose (Male C57BL/6J mice): 30 mg/kg
COc1ccc(CNCCc2cc(OC)c(I)cc2OC)cc1 [Compound 4b, N-(4-Methoxybenzyl)-2-(4-iodo-2,5-dimethoxyphenyl)ethan-1-amine]	11.7	0.7	14.1	3.63	1060	1590	325	1280	> 10000	1020	75	1570	50	53.8 ± 0.9	60	74.1 ± 0.8	38 ± 2	87	132	97 ± 2	Ki (5-HT2B; 5-HT2B pKi ± SEM): 16.6 nM; Emax (h5-HT2C): 50 ± 7%; EC50 (h5-HT2C): 43.2 nM; activity in the HTR assay (active / inactive) (Male C57BL/6J mice): None of the phenethylamines or tryptamines with 4-substituted N-benzyl groups, 4b, 4e, 5c, or 5f, was active
COc1cc(CCNCc2ccccc2Br)c(OC)cc1I [Compound 4c, N-(2-Bromobenzyl)-2-(4-iodo-2,5-dimethoxyphenyl)ethan-1-amine]	2.34	0.38	8.71	1.02	1160	> 10000	423	> 10000	> 10000	2290	257	2550	36	65.6 ± 1.6	42	88 ± 1.5	83 ± 3	134	105	104 ± 1	Ki (5-HT2B; 5-HT2B affinity): 20 nM; EC50 (h5-HT2B; h5-HT2B pEC50 ± SEM, Ca2+ mobilization, NA = not active, Emax ≤ 15%): 151 nM; Emax (h5-HT2C): 87 ± 5%; EC50 (h5-HT2C): 57.6 nM; max counts (Male C57BL/6J mice): 23.2; ED50 (Male C57BL/6J mice): 2.31 mg/kg; activity in the HTR assay (active / inactive) (Male C57BL/6J mice): active; magnitude of peak effect × vehicle (Male C57BL/6J mice): 3.0 × vehicle; maximally effective dose (Male C57BL/6J mice): 10 mg/kg
COc1ccc2[nH]cc(CCNCc3cccc(C(F)(F)F)c3)c2c1 [Compound 5k, N-(3-Trifluoromethylbenzyl)-2-(5-methoxy-1H-indol-3-yl)ethan-1-amine]	28.2	2.95	102	14.8	240	> 10000	278	> 10000	> 10000	3090	87	262	770	69.6 ± 1.4	87	75.5 ± 1.2	51 ± 2	107	162	104 ± 2	Ki (5-HT2B; 5-HT2B pKi ± SEM): 27.5 nM; Emax (h5-HT2C): 75 ± 5%; EC50 (h5-HT2C): 512 nM

From paper PMC4505863 (ACS Chemical Neuroscience, 2014)
